According to patent publication US20240116985A1, “STAPLED PEPTIDES AND METHODS THEREOF” (priority 2020, published 2024):

Molecular target: T1, full-length beta-Catenin (Uniprot ID P35222) (Homo sapiens, UniProt P35222)
T1 construct: 10 nM full-length beta-Catenin (Uniprot ID P35222)
T1 sequence (P35222 1-781): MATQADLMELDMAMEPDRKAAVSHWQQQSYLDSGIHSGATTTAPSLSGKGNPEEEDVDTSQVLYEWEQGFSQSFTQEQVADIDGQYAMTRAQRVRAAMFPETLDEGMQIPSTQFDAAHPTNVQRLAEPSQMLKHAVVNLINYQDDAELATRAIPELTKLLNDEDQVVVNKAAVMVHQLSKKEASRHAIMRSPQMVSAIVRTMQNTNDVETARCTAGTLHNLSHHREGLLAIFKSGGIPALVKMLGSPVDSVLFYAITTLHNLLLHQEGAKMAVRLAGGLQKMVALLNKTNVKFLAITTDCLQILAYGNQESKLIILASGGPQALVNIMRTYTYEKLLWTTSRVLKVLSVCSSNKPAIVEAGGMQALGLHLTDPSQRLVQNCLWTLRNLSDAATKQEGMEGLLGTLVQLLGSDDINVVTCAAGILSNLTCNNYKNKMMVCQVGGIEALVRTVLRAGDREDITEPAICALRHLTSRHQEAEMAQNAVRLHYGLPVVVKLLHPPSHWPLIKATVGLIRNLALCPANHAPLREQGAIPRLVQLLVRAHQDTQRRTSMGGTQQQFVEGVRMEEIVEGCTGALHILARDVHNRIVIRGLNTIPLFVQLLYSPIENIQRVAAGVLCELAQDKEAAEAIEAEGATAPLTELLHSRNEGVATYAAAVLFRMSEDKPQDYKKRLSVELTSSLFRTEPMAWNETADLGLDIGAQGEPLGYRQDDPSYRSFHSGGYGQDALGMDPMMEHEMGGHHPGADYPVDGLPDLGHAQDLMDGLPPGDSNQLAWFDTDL
Experiment: Fluorescence polarization IC50 (beta-catenin / 5FAM-TCF4 10-53 competition)
Format: binding
Conditions: fluorescence polarization, beta-catenin; read-out: FP EC50

IC50 [nM] | SMILES
1140 | CC(=O)N1CCC[C@]12CC=CCCCC1(CCCC=CCCCOC(=O)N3CC[C@@](C(=O)N[C@@H](Cc4ccsc4)C(=O)N[C@@H](Cc4csc5ccccc45)C(=O)N[C@@H](CCC(N)=O)C(=O)O)(C3)NC(=O)[C@H](CC(N)=O)NC(=O)[C@H](CC(=O)O)NC(=O)[C@H](C)NC(=O)[C@H](C)NC(=O)[C@H](CC(=O)O)NC(=O)[C@H](CC(=O)O)NC1=O)NC(=O)[C@H](CC(C)(C)C)NC(=O)[C@H](Cc1ccccc1)NC2=O (stereo partly drawn) [I-1027, Ac-PL3-Phe-Npg-B5-Asp-Asp-Ala-Ala-Asp-Asn-PyrS2-3Thi-BztA-Gln-OH]

Same assay, conditions: fluorescence polarization; read-out: beta-Catenin FP IC50

IC50 [nM] | SMILES
1610 | CC(=O)N1CCC[C@]12CC=CCCCC1(CCCC=CCCCOC(=O)N3CC[C@@](C(=O)N[C@@H](Cc4ccccc4)C(=O)N[C@@H](Cc4csc5ccccc45)C(=O)N[C@@H](CCO)C(N)=O)(C3)NC(=O)[C@H](CC(N)=O)NC(=O)[C@H](Cc3cccc(Cl)c3)NC(=O)[C@H](C)NC(=O)[C@H](CCCCNC(C)C)NC(=O)[C@H](CCC(N)=O)NC(=O)[C@H](CC(=O)O)NC1=O)NC(=O)[C@H](CC1CCCCC1)NC(=O)[C@H](CC(N)=O)NC2=O (stereo partly drawn) [I-1924, Ac-PL3-Asn-Cha-B5-Asp-Gln-iPrLys-Ala-3C1F-Asn-PyrS2-Phe-BztA-Hse-NH2]
419 | CC(=O)N1CCC[C@]12CCCCCCC1(CCCCCCCCOC(=O)N3CC[C@@](C(=O)N[C@@H](Cc4ccsc4)C(=O)N[C@@H](Cc4csc5ccccc45)C(=O)N[C@H](C(N)=O)C(C)C)(C3)NC(=O)[C@H](CC(C)C)NC(=O)[C@H](Cc3ccccc3)NC(=O)[C@H](C)NC(=O)[C@H](CCCCNC(C)C)NC(=O)[C@H](CN(CC(=O)O)CC(F)(F)F)NC(=O)[C@H](CC(=O)O)NC1=O)NC(=O)[C@H](CC(C)(C)C)NC(=O)[C@H](CC(=O)O)NC2=O (stereo partly drawn) [I-1769, Ac-PL3-Asp-Npg-B5-Asp-TfeGA-iPrLys-Ala-Phe-Leu-PyrS2-3Thi-BztA-Val-NH2]
179 | CCCC[C@@H]1NC(=O)[C@H](CC(=O)O)NC(=O)[C@]2(CCCCCCC3(CCCCCCCCOC(=O)N4CC[C@@](C(=O)N[C@@H](Cc5ccccc5C(F)(F)F)C(=O)N[C@@H](Cc5csc6ccccc56)C(=O)N[C@@H](CCC(N)=O)C(N)=O)(C4)NC(=O)[C@H](CC(C)C)NC(=O)[C@H](Cc4ccccc4)NC(=O)[C@H](C)NC(=O)[C@H](C)NC(=O)[C@H](Cc4cccc(C(=O)O)c4)NC(=O)[C@H](CC(=O)O)NC3=O)NC1=O)CCCN2C(C)=O (stereo partly drawn) [I-2531, Ac-PL3-Asp-nLeu-B5-Asp-3COOHF-Ala-Ala-Phe-Leu-PyrS2-2F3MeF-BztA-Gln-NH2]
7650 | CC(=O)N1CCC[C@]12CC=CCCCC1(CCCC=CCCCOC(=O)N3CC[C@@](C(=O)N[C@@H](Cc4cccc(-c5ccccc5)c4)C(=O)N[C@@H](CC4CCC4)C(=O)N[C@@H](CCC(N)=O)C(N)=O)(C3)NC(=O)[C@H](CC(C)C)NC(=O)[C@H](Cc3ccccc3)NC(=O)[C@H](C)NC(=O)[C@H](C)NC(=O)[C@H](Cc3cccc(C(=O)O)c3)NC(=O)[C@H](CC(=O)O)NC1=O)NC(=O)[C@H](CC(C)(C)C)NC(=O)[C@H](CC(=O)O)NC2=O (stereo partly drawn) [I-2255, Ac-PL3-Asp-Npg-B5-Asp-3COOHF-Ala-Ala-Phe-Leu-PyrS2-[Ph]3SF-Cba-Gln-NH2]
357 | CC(=O)N1CCC[C@]12CC=CCCCC1(CCCC=CCCCOC(=O)N3CC[C@@](C(=O)N[C@@H](Cc4ccsc4)C(=O)N[C@@H](Cc4csc5ccccc45)C(=O)N[C@@H](CCC(N)=O)C(N)=O)(C3)NC(=O)[C@H](CC(N)=O)NC(=O)[C@H](Cc3ccccc3)NC(=O)[C@H](C)NC(=O)[C@H](CCCCNC(C)C)NC(=O)[C@H]([C@@H](C)O)NC(=O)[C@H](CC(N)=O)NC1=O)NC(=O)[C@H](CC(C)(C)C)NC(=O)[C@H](CC(=O)O)NC2=O (stereo partly drawn) [I-2005, Ac-PL3-Asp-Npg-B5-Asn-Thr-iPrLys-Ala-Phe-Asn-PyrS2-3Thi-BztA-Gln-NH2]
41 | CC(=O)N1CCC[C@]12CC=CCCCC1(CCCC=CCCCOC(=O)N3CC[C@@](C(=O)N[C@@H](Cc4ccsc4)C(=O)N[C@@H](Cc4ccc(F)c(F)c4)C(=O)N[C@@H](CO)C(N)=O)(C3)NC(=O)[C@H](CC(C)C)NC(=O)[C@H](Cc3ccccc3)NC(=O)[C@H](C)NC(=O)[C@H](C)NC(=O)[C@H](CC(=O)O)NC(=O)[C@H](CC(=O)O)NC1=O)NC(=O)[C@H](CC(C)(C)C)NC(=O)[C@H](CC(=O)O)NC2=O (stereo partly drawn) [I-1428, Ac-PL3-Asp-Npg-B5-Asp-Asp-Ala-Ala-Phe-Leu-PyrS2-3Thi-34FF-Ser-NH2]
7 | CC(=O)N1CCC[C@]12CC=CCCCC1(CCCC=CCCCOC(=O)N3CC[C@@](C(=O)N[C@@H](Cc4ccsc4)C(=O)N[C@@H](Cc4csc5ccccc45)C(=O)N[C@@H](Cc4c[nH]cn4)C(N)=O)(C3)NC(=O)[C@H](CCC(N)=O)NC(=O)[C@H](Cc3ccccc3)NC(=O)[C@H](C)NC(=O)[C@H](C)NC(=O)[C@H](CC(=O)O)NC(=O)[C@H](CC(=O)O)NC1=O)NC(=O)[C@H](CC(C)(C)C)NC(=O)[C@H](CC(=O)O)NC2=O (stereo partly drawn) [I-1460, Ac-PL3-Asp-Npg-B5-Asp-Asp-Ala-Ala-Phe-Gln-PyrS2-3Thi-BztA-His-NH2]
153 | CC(C)C[C@@H]1NC(=O)[C@H](Cc2ccccc2)NC(=O)[C@H](C)NC(=O)[C@H](C)NC(=O)[C@H](Cc2cccc(C(=O)O)c2)NC(=O)[C@H](CC(=O)O)NC(=O)C2(CCCCCCCCOC(=O)N3CC[C@@](C(=O)N[C@@H](Cc4ccccc4C(F)(F)F)C(=O)N[C@@H](Cc4csc5ccccc45)C(=O)N[C@@H](CCC(N)=O)C(N)=O)(C3)NC1=O)CCCCCC[C@@]13CCCN1C(=O)CCCCCC[C@H](NC(=O)[C@H](CC(=O)O)NC3=O)C(=O)N2 (stereo partly drawn) [I-2529, 5hexenyl-PL3-Asp-AllylGly-B5-Asp-3COOHF-Ala-Ala-Phe-Leu-PyrS2-2F3MeF-BztA-Gln-NH2]
449 | CC(=O)N1CCC[C@]12CC=CCCCC1(CCCC=CCCCOC(=O)N3CC[C@@](C(=O)N[C@@H](Cc4ccccc4)C(=O)N[C@@H](Cc4csc5ccccc45)C(=O)N[C@@H](CC(=O)N4CCOCC4)C(N)=O)(C3)NC(=O)[C@H](CC(C)C)NC(=O)[C@H](Cc3ccccc3)NC(=O)[C@H](C)NC(=O)[C@H](CCO)NC(=O)[C@H](CCC(N)=O)NC(=O)[C@H](CC(=O)O)NC1=O)NC(=O)[C@H](CC1CCCCC1)NC(=O)[C@H](CC(N)=O)NC2=O (stereo partly drawn) [I-2498, Ac-PL3-Asn-Cha-B5-Asp-Gln-Hse-Ala-Phe-Leu-PyrS2-Phe-BztA-MorphAsn-NH2]
100 | CC(=O)N1CCC[C@]12CC=CCCCC1(CCCC=CCCCOC(=O)N3CC[C@@](C(=O)N[C@@H](Cc4ccsc4)C(=O)N[C@@H](Cc4csc5ccccc45)C(=O)N[C@@H](CCC(N)=O)C(N)=O)(C3)NC(=O)[C@H](CC(N)=O)NC(=O)[C@H](Cc3ccccc3)NC(=O)[C@H](C)NC(=O)[C@H](C)NC(=O)[C@H](CC(=O)O)NC(=O)[C@H](CC(=O)O)NC1=O)NC(=O)[C@H](CC(C)(C)C)NC(=O)[C@H](CCO)NC2=O (stereo partly drawn) [I-1228, Ac-PL3-Hse-Npg-B5-Asp-Asp-Ala-Ala-Phe-Asn-PyrS2-3Thi-BztA-Gln-NH2]
2760 | CC(=O)N1CCC[C@]12CC=CCCCC1(CCCC=CCCCOC(=O)N3CC[C@@](C(=O)N[C@@H](Cc4ccccc4)C(=O)N[C@@H](Cc4csc5ccccc45)C(=O)N[C@@H](CCC(N)=O)C(N)=O)(C3)NC(=O)[C@H](CC(C)C)NC(=O)[C@H](Cc3ccccc3)NC(=O)[C@H](C)NC(=O)[C@H](CCCCNC(C)C)NC(=O)[C@H](CCC(N)=O)NC(=O)[C@H](CC(=O)O)NC1=O)NC(=O)[C@H](CC1CCCCC1)NC(=O)[C@H](CCO)NC2=O (stereo partly drawn) [I-2353, Ac-PL3-Hse-Cha-B5-Asp-Gln-iPrLys-Ala-Phe-Leu-PyrS2-Phe-BztA-Gln-NH2]
